From patent publication US9409905B2, “Antibacterial compounds and methods for use” (PTC THERAPEUTICS, INC., priority 2011, dated 2016) come the findings set out here.

Values after ≈ are worked out from the molar mass of the structure shown.

In assay [1] the test system is Escherichia coli (E. coli) BAS849. Briefly: Antibacterial activity, microbroth dilution MIC (Table 1). Format: cell-based. The conditions noted are these: microbroth dilution, super sensitive Gram-negative E. coli BAS849, read-out: MIC, BAS849. An excerpt: (§1) The antibacterial activity from a microbroth dilution method may be presented as the minimum inhibitory concentration (MIC in μg/mL). The MIC value is the lowest concentration of drug which prevents macroscopically visible growth under test conditions.
(§2) Antibacterial activity of test compounds against the super sensitive Gram-negative Escherichia coli (E. coli) BAS849 bacterium, the control Gram-negative E. coli 25922 strain and the Gram-positive Staphylococcus aureus (S. aureus) 29213 bacterium are shown in Table 1.
A general note: Broth dilution looks for growth in wells or tubes with falling amounts of substance.

The subject of assay [2] is Staphylococcus aureus (S. aureus) 29213. Described as above. Format: cell-based. The conditions noted are these: microbroth dilution, Gram-positive S. aureus 29213, read-out: MIC, 29213.
Description: as §1, §2

Assay [3] relates to E. coli 25922. Described as above. The class given is cell-based, Escherichia coli. The conditions noted are these: Escherichia coli; microbroth dilution; control Gram-negative E. coli 25922 strain; read-out: MIC, 25922.
Description: as §1, §2

Assay [4] deals with E. coli LZ3111. Kind of assay: Antibacterial activity, MIC, quinolone resistant strain (Table 2). The class given is cell-based. The conditions noted are these: Escherichia coli, LZ3111, read-out: MIC LZ3111.
Description: as §1
Mutations in these regions are known to confer a high level resistance to the quinolone class of antibiotics.

In the case of `CCc1cc(C(=O)O)c(=O)[nH]c1-c1ccc2ccn(C)c2c1` [Cpd 7, 5-ethyl-6-(1-methyl-1H-indol-6-yl)-2-oxo-1,2-dihydropyridine-3-carboxylic acid], the MIC in assay [1] lay within 1 to 3.5 µg/mL (≈ 3.37 to 11.8 µM); in assay [2], 12.5 to 150 µg/mL (≈ 42.2 to 506 µM); in assay [3], 12.5 to 150 µg/mL (≈ 42.2 to 506 µM); in assay [4], 12.5 to 150 µg/mL (≈ 42.2 to 506 µM).
Take `CCc1c(-c2ccc3nc(C)oc3c2)[nH]c(=O)c(C(=O)O)c1O` [Cpd 12, 5-ethyl-4-hydroxy-6-(2-methylbenzo[d]oxazol-6-yl)-2-oxo-1,2-dihydropyridine-3-carboxylic acid]: the MIC lay in the range of 1 to 3.5 µg/mL (≈ 3.18 to 11.1 µM) in assay [1], 12.5 to 150 µg/mL (≈ 39.8 to 477 µM) in assay [2], 12.5 to 150 µg/mL (≈ 39.8 to 477 µM) in assay [3] and 12.5 to 150 µg/mL (≈ 39.8 to 477 µM) in assay [4].
Turning to `CCc1cc(C(=O)O)c(=O)[nH]c1-c1cn(C)c2ccccc12` [Cpd 13, 5-ethyl-6-(1-methyl-1H-indol-3-yl)-2-oxo-1,2-dihydropyridine-3-carboxylic acid], the MIC was 3.5 to 12.5 µg/mL (≈ 11.8 to 42.2 µM) in assay [1], 12.5 to 150 µg/mL (≈ 42.2 to 506 µM) in assay [2] and 12.5 to 150 µg/mL (≈ 42.2 to 506 µM) in assay [3].
On to `CCc1cc(C(=O)O)c(=O)[nH]c1-c1ccc2nc(-c3ccccc3)oc2c1` [Cpd 15, 5-ethyl-2-oxo-6-(2-phenylbenzo[d]oxazol-6-yl)-1,2-dihydropyridine-3-carboxylic acid], for which the values for the MIC in assay [1], in assay [2] and in assay [3] were 1 to 3.5 µg/mL (≈ 2.77 to 9.71 µM), 12.5 to 150 µg/mL (≈ 34.7 to 416 µM) and 12.5 to 150 µg/mL (≈ 34.7 to 416 µM), respectively.
Consider `CCc1c(-c2ccc3nc(-c4ccccc4)oc3c2)[nH]c(=O)c(C(=O)O)c1O` [Cpd 16, 5-ethyl-4-hydroxy-2-oxo-6-(2-phenylbenzo[d]oxazol-6-yl)-1,2-dihydropyridine-3-carboxylic acid], for which the minimal inhibitory concentration (MIC) in assay [1] was 3.5 to 12.5 µg/mL (≈ 9.3 to 33.2 µM); in assay [2] it was 1 to 3.5 µg/mL (≈ 2.66 to 9.3 µM); in assay [3], 12.5 to 150 µg/mL (≈ 33.2 to 399 µM).
As to `CCc1cc(C(=O)O)c(=O)[nH]c1-c1ccc2nc(N(C)C)oc2c1` [Cpd 17, 6-(2-(dimethylamino)benzo[d]oxazol-6-yl)-5-ethyl-2-oxo-1,2-dihydropyridine-3-carboxylic acid], the minimum inhibitory concentration (MIC) in assay [1] was in the range of 3.5 to 12.5 µg/mL (≈ 10.7 to 38.2 µM); in assay [2], 1 to 3.5 µg/mL (≈ 3.05 to 10.7 µM); in assay [3] it was 12.5 to 150 µg/mL (≈ 38.2 to 458 µM).
Consider `CCc1cc(C(=O)O)c(=O)[nH]c1-c1ccc2ncccc2c1` [Cpd 19, 5-ethyl-2-oxo-6-(quinolin-6-yl)-1,2-dihydropyridine-3-carboxylic acid], for which the MIC in assay [1], in assay [2] and in assay [3] was 12.5 to 150 µg/mL (≈ 42.5 to 510 µM) in each case.
Turning to `CCc1cc(C(=O)O)c(=O)[nH]c1-c1ccc2c(ccn2CC2OCCO2)c1` [Cpd 25, 6-(1-((1,3-dioxolan-2-yl)methyl)-1H-indol-5-yl)-5-ethyl-2-oxo-1,2-dihydropyridine-3-carboxylic acid], the MIC is under 1 µg/mL in assay [1], 12.5 to 150 µg/mL (≈ 33.9 to 407 µM) in assay [2] and 12.5 to 150 µg/mL (≈ 33.9 to 407 µM) in assay [3].
Turning to `CCc1c(-c2ccc3c(ccn3CC3OCCO3)c2)[nH]c(=O)c(C(=O)O)c1O` [Cpd 26, 6-(1-((1,3-dioxolan-2-yl)methyl)-1H-indol-5-yl)-5-ethyl-4-hydroxy-2-oxo-1,2-dihydropyridine-3-carboxylic acid], the MIC in assay [1] was under 1 µg/mL; in assay [2], 3.5 to 12.5 µg/mL (≈ 9.11 to 32.5 µM); in assay [3], 12.5 to 150 µg/mL (≈ 32.5 to 390 µM).
Taken in the same sequence, the figures for `CCc1cc(C(=O)O)c(=O)[nH]c1-c1ccc2c(c1)c1c(n2C)CCCC1` [Cpd 27, 5-ethyl-6-(9-methyl-2,3,4,9-tetrahydro-1H-carbazol-6-yl)-2-oxo-1,2-dihydropyridine-3-carboxylic acid] were under 1 µg/mL, 3.5 to 12.5 µg/mL (≈ 9.99 to 35.7 µM) and 12.5 to 150 µg/mL (≈ 35.7 to 428 µM).
For `CCc1cc(C(=O)O)c(=O)[nH]c1-c1ccc2c(c1)c(C)c(C)n2C` [Cpd 29, 5-ethyl-2-oxo-6-(1,2,3-trimethyl-1H-indol-5-yl)-1,2-dihydropyridine-3-carboxylic acid], the MIC in assay [1] was under 1 µg/mL; in assay [2] it was 12.5 to 150 µg/mL (≈ 38.5 to 462 µM); in assay [3] it was 12.5 to 150 µg/mL (≈ 38.5 to 462 µM).
Regarding `CC(C)c1c(-c2ccc3c(ccn3C)c2)[nH]c(=O)c(C(=O)O)c1O` [Cpd 34, 4-hydroxy-5-isopropyl-6-(1-methyl-1H-indol-5-yl)-2-oxo-1,2-dihydropyridine-3-carboxylic acid], the figures for the MIC in assay [1], in assay [2] and in assay [3] were under 1 µg/mL, 1 to 3.5 µg/mL (≈ 3.06 to 10.7 µM) and 3.5 to 12.5 µg/mL (≈ 10.7 to 38.3 µM), respectively.

What is called MIC is the smallest concentration in the dilution series that meets the test's criterion for growth inhibition.
